Test results taken from BindingDB's records for doi:10.1021/acs.jnatprod.0c00921 (Bc Cancer, 2021).

Assay: Inhibition of R1881-stimulated AR transcription driven human LNCaP cells proliferation preincubated for 1 hr followed by R1881 addition and measured after 4 days by Alamar blue assay

## CCC(=O)N[C@H](C[C@H](C)C(Cl)(Cl)Cl)C(=O)N1C(=O)C=C(OC)[C@@H]1C[C@H](C)C(Cl)Cl
  IC50: 14 µM
